From patent US4788188A, “Quinolylglycinamide derivatives, the process for preparation thereof and their therapeutic application as psychotropic drugs” (Sanofi (S.A.), priority 1985, dated 1988)
Counter-ions that a name gives are not always drawn.

Legend:
pentetrazole seizures = experiment: Anticonvulsant activity: protection against pentetrazole seizures (EVERETT and RICHARDS); format: in vivo, mice; conditions: pentetrazole 125 mg/kg subcutaneously, no tonic seizures during 30 minutes, 95% confidence limits (FINNEY); for ED50: Mus musculus, po, 0.5 h, read-out: ED50 (Confidence interval)
Protocol: The protective effect produced by the compound of the inventon against pentetrazole seizures was studied.
This test was carried out according to the method of EVERETT and RICHARDS (J. Pharm. Exp. Ther., 1944, 81, 402-407). The test products and reference products were administered orally (suspended in gum arabic) to batches of 10 mice, 30 minutes […] pentetrazole (125 mg/kg subcutaneously).

benzodiazepine receptors = experiment: Affinity for benzodiazepine receptors: inhibition of specific binding of [3H]flunitrazepam (WASTEK et al., modified); parameters: species or system rats; conditions: 50% inhibition of specific binding of [3H]flunitrazepam, rat brain membranes
Protocol: This study was performed according to the technique of WASTEK et al., (Europ. J. Pharmacol., 1978, 50, 445-447) slightly modified.
Rats are sacrificed by decapitation, and the brain is removed, ground, suspended, centrifuged and resuspended.
Samples of this suspension are incubated in the presence of [^3 H]flunitrazepam, alone or in the presence of increasing concentrations of the test compound.
The radioactivity bound on the membranes is then determined by liquid scintillation.
The concentration of product which 50% inhibits the specific binding of [^3 H]flunitrazepam (IC50) is thereby determined.

food neophobia = experiment: Anxiolytic activity: food neophobia test; format: in vivo, mice; conditions: dose 32 mg/kg, SC, 30 minutes after treatment
Protocol: This activity was studied by the food neophobia test. In effect, a pronounced inhibition of the feed intake can be obtained in mice when both the food and the enclosure are unfamiliar to the aninal (R. J. STEPHENS, Brit. J. Pharmacol., 1973, 47, 145 P). All anxiolytics specifically counteract neophobia phenomena.
30 minutes after oral or subcutaneous treatment with the test derivatives and the reference products, the mice, fasted for 16 to 20 hours, are isolated in a translucent enclosure and placed in the presence of an unfamiliar food for 5 minutes.
The amounts consumed are evaluated in proportion to the weight of the animal.
In each batch, the mean consumption and also the percentage variation relative to the control batch are calculated in this manner.

Row | SMILES | IC50 (benzodiazepine receptors) | also measured
1 | CCOC(=O)c1cnc2ccc(Cl)cc2c1NCC(=O)N(CC)CC [1 maleate] |  | ED50 (Confidence interval) (pentetrazole seizures; oral, 30 min): 27 (18-36) mg/kg
2 | CCOC(=O)c1cnc2ccc(C)cc2c1NCC(=O)N(CC)CC [Derivative 2, 2-[(3-Ethoxycarbonyl-6-methyl)-4-quinolyl]amino-N,N-diethylacetamide hydrochloride] | 41 nM | 
3 | CCCCc1ccc2ncc(C(=O)OCC)c(NCC(=O)N(CC)CC)c2c1 [Derivative 6, 2-(3-Ethoxycarbonyl-6-butyl-4-quinolyl)amino-N,N-diethylacetamide] | 155 nM | 
4 | CCOC(=O)c1cnc2ccc(F)cc2c1NCC(=O)N(CC)CC [Derivative 7, 2-(3-Ethoxycarbonyl-6-fluoro-4-quinolyl)amino-N,N-diethylacetamide] | 639 nM | 
5 | CCOC(=O)c1cnc2ccc(C3CCCCC3)cc2c1NCC(=O)N(CC)CC [Derivative 9, 2-(3-Ethoxycarbonyl-6-cyclohexyl-4-quinolyl)amino-N,N-diethylacetamide] | 900 nM | 
6 | CCOC(=O)c1cnc2ccccc2c1NCC(=O)N(CC)CC [Derivative 10, 2-(3-Ethoxycarbonyl-4-quinolyl)amino-N,N-diethylacetamide] | 1560 nM | ED50 (pentetrazole seizures): 68 mg/kg
7 | CCCN(CCC)C(=O)CNc1c(C(=O)OCC)cnc2ccccc12 [Derivative 15, 2-(3-Ethoxycarbonyl-4-quinolyl)amino-N,N-dipropylacetamide] | 483 nM | 
8 | CCCN(CCC)C(=O)CNc1c(C(=O)OCC)cnc2ccc(OCC)cc12 [Derivative 16, 2-(3-Ethoxycarbonyl-6-ethoxy-4-quinolyl)amino-N,N-dipropylacetamide] | 38 nM | 
9 | CCCN(CCC)C(=O)CNc1c(C(=O)OCC)cnc2ccc([N+](=O)[O-])cc12 [Derivative 18, 2-(3-Ethoxycarbonyl-6-nitro-4-quinolyl)amino-N,N-dipropylacetamide] | 26 nM | 
10 | CCCN(CCC)C(=O)CNc1c(C(=O)OCC)cnc2ccc(C(F)(F)F)cc12 [Derivative 19, 2-(3-Ethoxycarbonyl-6-trifluoromethyl-4-quinolyl)amino-N,N-dipropylacetamide] | 28 nM | 
11 | CCCN(CCC)C(=O)CNc1c(C(=O)OCC)cnc2ccc(SC)cc12 [Derivative 20, 2-(3-Ethoxycarbonyl-6-methylthio-4-quinolyl)amino-N,N-dipropylacetamide] | 40 nM | 
12 | CCOC(=O)c1cnc2ccc(Cl)cc2c1NCC(=O)N(CC(C)C)CC(C)C [Derivative 21, 2-(3-Ethoxycarbonyl-6-chloro-4-quinolyl)amino-N,N-diisobutylacetamide] | 28 nM | 
13 | CCOC(=O)c1cnc2ccc(Cl)cc2c1NCC(=O)N(C)c1ccccc1 [Derivative 22, 2-(3-Ethoxycarbonyl-6-chloro-4-quinolyl)amino-N-methyl-N-phenylacetamide] | 14 nM | 
14 | CCOC(=O)c1cnc2ccc(Cl)cc2c1NCC(=O)N(C)C1CCCCC1 [Derivative 23, 2-(3-Ethoxycarbonyl-6-chloro-4-quinolyl)amino-N-methyl-N-cyclohexylacetamide] | 100 nM | 
15 | CCOC(=O)c1cnc2ccc(Cl)cc2c1NCC(=O)N(C)c1ccc(Cl)cc1 [Derivative 24, 2-(3-Ethoxycarbonyl-6-chloro-4-quinolyl)amino-N-methyl-N-(4-chlorophenyl)acetamide] | 251 nM | 
16 | CCOC(=O)c1cnc2ccc(Cl)cc2c1NCC(=O)N1CCCCC1 [Derivative 25, 1-{2-[(3-Ethoxycarbonyl-6-chloro-4-quinolyl)amino]acetyl}piperidine] | 148 nM | ED50 (pentetrazole seizures): 33 mg/kg
17 | CCOC(=O)c1cnc2ccc(Cl)cc2c1NCC(=O)N1CCCC1 [Derivative 26, 1-{2-[(3-Ethoxycarbonyl-6-chloro-4-quinolyl)amino]acetyl}pyrrolidine] | 333 nM | ED50 (pentetrazole seizures): 50 mg/kg
18 | CCOC(=O)c1cnc2ccc(Cl)cc2c1NCC(=O)N1CCCCCC1 [Derivative 27, 1-{2-[(3-Ethoxycarbonyl-6-chloro-4-quinolyl)amino]acetyl}homopiperidine] | 38 nM | 
19 | CCOC(=O)c1cnc2ccc(Cl)cc2c1NCC(=O)N1CCOCC1 [Derivative 28, 1-{2-[(3-Ethoxycarbonyl-6-chloro-4-quinolyl)amino]acetyl}morpholine] | 600 nM | 
20 | CCOC(=O)c1cnc2ccc(Cl)cc2c1NCC(=O)N(C)C [Derivative 29, 2-(3-Ethoxycarbonyl-6-chloro-4-quinolyl)amino-N,N-dimethylacetamide] | 687 nM | ED50 (pentetrazole seizures): 38 mg/kg

Row | SMILES | IC50 (benzodiazepine receptors) | also measured
21 | CCOC(=O)c1cnc2ccc(Cl)cc2c1NCC(N)=O [Derivative 30, 2-[(3-Ethoxycarbonyl-6-chloro-4-quinolyl)amino]acetamide] | 700 nM | 
22 | CCOC(=O)c1cnc2ccc(Cl)cc2c1NCC(=O)N(C(C)C)C(C)C [Derivative 34, 2-(3-Ethoxycarbonyl-6-chloro-4-quinolyl)amino-N,N-diisopropylacetamide] | 48 nM | 
23 | CCCN(C(=O)CNc1c(C(=O)OCC)cnc2ccc(Cl)cc12)c1ccccc1 [Derivative 35, 2-(3-Ethoxycarbonyl-6-chloro-4-quinolyl)amino-N-propyl-N-phenylacetamide] | 27 nM | 
24 | C#CCN(C)C(=O)CNc1c(C(=O)OCC)cnc2ccc(Cl)cc12 [Derivative 36, 2-(3-Ethoxycarbonyl-6-chloro-4-quinolyl)amino-N-methyl-N-(2-propynyl)acetamide] | 99 nM | 
25 | CCOC(=O)c1cnc2ccc(Cl)cc2c1NCC(=O)NC [Derivative 41, 2-(3-Ethoxycarbonyl-6-chloro-4-quinolyl)amino-N-methylacetamide] | 440 nM | ED50 (pentetrazole seizures): 46 mg/kg
26 | CCN(CC)C(=O)CNc1c(C(=O)O)cnc2ccc(C)cc12 [Derivative 44, 2-(3-Carboxy-6-methyl-4-quinolyl)amino-N,N-diethylacetamide] | 46 nM | Percentage increase (food consumption relative to control batch) (food neophobia): 50%
27 | O=C(O)c1cnc2ccc(Cl)cc2c1NCC(=O)N1CCCCCC1 [Derivative 45, 1-{2-[(3-Carboxy-6-chloro-4-quinolyl)amino]acetyl}-homopiperidine] | 7 nM | 
28 | CCCN(CCC)C(=O)CNc1c(C(=O)O)cnc2ccc(Br)cc12 [Derivative 47, 2-(3-Carboxy-6-bromo-4-quinolyl)amino-N,N-dipropylacetamide monohydrate] | 1 nM | 
29 | CCN(CC)C(=O)CNc1c(C(=O)OC(C)C)cnc2ccc(Cl)cc12 [Derivative 48, 2-(3-Isopropyloxycarbonyl-6-chloro-4-quinolyl)amino-N,N-diethylacetamide] | 69 nM | 
30 | CCCCOC(=O)c1cnc2ccc(Cl)cc2c1NCC(=O)N(CC)CC [Derivative 49, 2-(3-Butoxycarbonyl-6-chloro-4-quinolyl)amino-N,N-diethylacetamide] | 61 nM | ED50 (pentetrazole seizures): 54 mg/kg
31 | CCN(CC)C(=O)CNc1c(C(=O)OCc2ccccc2)cnc2ccc(Cl)cc12 [Derivative 50, 2-(3-Benzyloxycarbonyl-6-chloro-4-quinolyl)amino-N,N-diethylacetamide] | 27 nM | 
32 | CCCN(CCC)C(=O)CN(C)c1c(C(=O)OCc2ccccc2)cnc2ccc(Cl)cc12 [Derivative 52, [N'-(3-Benzyloxycarbonyl-6-chloro-4-quinolyl)-N'-methylamino]-N,N-dipropylacetamide] | 727 nM | ED50 (pentetrazole seizures): 31 mg/kg
33 | CCCN(CCC)C(=O)CN(C)c1c(C(=O)OCc2ccccc2)cnc2ccc(C)cc12 [Derivative 53, [N'-(3-Benzyloxycarbonyl-6-methyl-4-quinolyl)-N'-methylamino]-N,N-dipropylacetamide] | 638 nM | 
34 | CCCNC(=O)c1cnc2ccc(Cl)cc2c1NCC(=O)N(CC)CC [Derivative 55, 2-[3-(N-Propylcarbamoyl)-6-chloro-4-quinolyl]amino-N,N-diethylacetamide] | 150 nM | 
35 | CCN(CC)C(=O)CNc1c(C(=O)Nc2ccccc2)cnc2ccc(Cl)cc12 [Derivative 56, 2-[3-(N-Phenylcarbamoyl)-6-chloro-4-quinolyl]amino-N,N-diethylacetamide] | 136 nM | 
36 | CCCN(CCC)C(=O)CN(C)c1c(C(=O)OCC)cnc2ccc(C)cc12.Cl [Derivative 61, [N'-(3-Ethoxycarbonyl-6-methyl-4-quinolyl)-N'-methylamino]-N,N-dipropylacetamide hydrochloride] |  | ED50 (pentetrazole seizures): 24 mg/kg
37 | CCCN(CCC)C(=O)CN(C)c1c(C(=O)OCC)cnc2ccc(Br)cc12 [Derivative 63, [N'-(3-Ethoxycarbonyl-6-bromo-4-quinolyl)-N'-methylamino]-N,N-dipropylacetamide] |  | ED50 (pentetrazole seizures): 24 mg/kg
38 | CCCN(CCC)C(=O)CNc1c(C(C)=O)cnc2ccc(C)cc12 [Derivative 66, 2-(3-Acetyl-6-methyl-4-quinolyl)amino-N,N-dipropylacetamide] | 92 nM | 
39 | CCC1(c2ccccc2)C(=O)NC(=O)NC1=O [Phenobarbital, reference compound] |  | ED50 (pentetrazole seizures): 10 mg/kg
